A melting point compilation (Tetko et al.; mined from patent text by program, amines drawn as free bases though some values may be those of a salt)

First: Fc1cccc2oc(CCC#Cc3ccccn3)nc12
Second: OCc1nccn1CCc1ccccc1
The melting point of the first is higher: 89 to 89.5 °C for the first, 75.4 °C for the second.

Compared with COC(=O)c1ccc2c(Cl)ccnc2c1, Cc1ccc2c(c1)oc1c(C(N)=O)nn(-c3ccc(Cl)cc3Cl)c12 is higher in melting point: 118 to 119 °C for the first, 185 to 186 °C for the second.

First: Fc1cccc(C(c2ccccc2)(c2cccc(F)c2)n2ccnc2)c1
Second: CC(c1oc2ccccc2c(=O)c1-c1cccc(F)c1)n1nc(-c2cc(O)cc(F)c2)c2c(N)ncnc21 (stereo not drawn)
The melting point of the first is lower: 165 to 167 °C for the first, 271 to 273 °C for the second.

First: CC(C)CCN1C(=O)C(NC(=O)Oc2cccc(N(C)C)c2)C(=O)N(CC23CC4CC(CC(C4)C2)C3)c2ccccc21 (stereo not drawn)
Second: CC(C)C(=O)c1ccc2c(c1)CC(N1C(=O)c3ccccc3C1=O)C2 (stereo not drawn)
The melting point of the first is higher: 172 to 173 °C for the first, 138 to 140 °C for the second.

First: ON=Cc1sc(Cl)nc1Cl
Second: COC(=O)c1nc(Cl)c(Cl)c(N)c1I
The melting point of the first is higher: 160 °C for the first, 122 to 123 °C for the second.

Going from CCOC(=O)c1ccnnc1NC(=O)Cc1c(F)cc(F)cc1F to CCc1ccc(NC2=CC3=NCN(C)C3=CC2(F)C(=O)OC)c(F)c1 (stereo not drawn), the melting point rises from 135 °C to 238 °C.

Compared with CC1CCNC(=C2C(=O)CC(C)(C)CC2=O)N1 (stereo not drawn), CC(C)Sc1sc(-c2cc[nH]n2)c2c1C(=O)CC(C)(C)C2 is higher in melting point: 164 to 165 °C for the first, 195 to 198 °C for the second.

First: COc1cc2c(c3c1OC(C)(C)C3)C(c1cccc(C(=O)Nc3c(Cl)cncc3Cl)c1)=NC(C)(C)C2
Second: Cc1cnoc1-c1ccc2c(c1)c1cc(-c3ccc(Cl)cc3Cl)c(=O)n(C)c1n2C
The melting point of the first is lower: 227 to 228 °C for the first, 233 to 234 °C for the second.

First: CCN1c2ncc(C#Cc3cccnc3)cc2C(=O)N(C)c2cccnc21
Second: Cc1ccccc1-n1c(=O)c(N2CCNCC2)nc2ccccc21
The melting point of the first is higher: 178 to 180 °C for the first, 151 to 153 °C for the second.

Compared with CC(C)(O)c1cc(Cn2cncn2)cc(C(C)(C)C#N)c1, CCS(=O)(=O)NCC(O)(Cn1cncn1)c1ccc(Cl)cc1Cl (stereo not drawn) is lower in melting point: 152 to 154 °C for the first, 144 to 145 °C for the second.

Going from COc1ccc(C(=O)NCC[C@@H](O)C(=O)O)cc1 to CC(C)(C)OC(=O)NCCCCC(=O)Nc1cccc(C(=O)O)c1, the melting point rises from 104 °C to 188 °C.

First: CN(C)c1ccc(NC(=O)N(C[C@H]2CCC[C@H](CN(C(=O)Nc3ccc(N(C)C)cc3)C3CCCCCC3)C2)C2CCCCCC2)cc1 (relative stereo)
Second: CCC(=O)Cc1cc(OC2CCCC2)ccc1NC(=O)OC(C)(C)C
The melting point of the first is higher: 109 to 114 °C for the first, 71 to 73 °C for the second.

First: O=C(O)Cc1c(C(=O)c2ccccc2)[nH]c2cc(Cl)cc(Cl)c12
Second: Cc1cc(C)c(C(=O)P(=O)(Cc2ccccc2)c2ccccc2)c(C)c1 (stereo not drawn)
The melting point of the first is higher: 214 to 218 °C for the first, 113 to 114 °C for the second.

First: Clc1ccc(N2CCN(CCc3ccccc3)CC2)nn1
Second: NC(=O)c1ccc(N2CCN(CCC3CCc4ccccc43)CC2)cc1 (stereo not drawn)
The melting point of the first is lower: 140 °C for the first, 204 to 205 °C for the second.

First: CC(C)(C)c1cc(C(=O)c2cc3c(cc2O)CCC3)cc(C(C)(C)C)c1O
Second: CC(c1cc(Br)c(O)c(Br)c1)(c1cc(Br)c(O)c(Br)c1)c1cc(Br)c(O)c(Br)c1
The melting point of the first is lower: 155 to 156 °C for the first, 160 °C for the second.

First: Cc1ccc(NCCN(C)C)c([N+](=O)[O-])c1
Second: COCC(C)OC(=O)c1ccc([N+](=O)[O-])cc1[N+](=O)[O-] (stereo not drawn)
The melting point of the first is higher: 59 °C for the first, 42 °C for the second.

First: COc1ccc(N2CCN(CCn3c(=O)[nH]c4ccsc4c3=O)CC2)cc1
Second: CNC(=O)c1ccc(N2CCN(Cc3cc(Cc4ccccc4)c4c(c3)NC(=O)C(C)O4)CC2)cc1 (stereo not drawn)
The melting point of the first is lower: 130 to 131 °C for the first, 227 to 231 °C for the second.

First: Cc1ccc(SC2OC(COC(=O)c3ccccc3)C(O)C(OC(=O)c3ccccc3)C2OC(=O)c2ccccc2)cc1 (stereo not drawn)
Second: O=C(OCc1ccccc1)N1CCC(O)(Cn2nc(-c3c(-c4ccccc4)nn4ccccc34)ccc2=O)CC1
The melting point of the first is higher: 197 °C for the first, 176 to 177 °C for the second.

First: Cc1nc(C)c(Cl)c(NCc2ccc(OCCn3c([N+](=O)[O-])cnc3C)cn2)n1
Second: COCCc1nc2c(N)nc3cc(OCc4cccc([N+](=O)[O-])c4)ccc3c2n1CC(C)(C)O
The melting point of the first is higher: 182 to 184 °C for the first, 125 to 127 °C for the second.

First: CCCCCCc1c(C(C)C)nc(C(C)C)c(C(C)O)c1-c1ccc(F)cc1 (stereo not drawn)
Second: CCC[C@@H]1COC(=O)N1c1nc(-c2ccc(Br)cc2)cs1
The melting point of the first is lower: 75 to 77 °C for the first, 114 to 116 °C for the second.

First: COc1cc2ncnc(N3CCN(C(=S)Nc4ccc(CNC(=O)OC(C)(C)C)cc4)CC3)c2cc1OC
Second: C[C@@H](Nc1ncnc2[nH]c(-c3ccc(CN4CCN(C)CC4)cc3)cc12)c1ccccc1
The melting point of the first is lower: 123 to 126 °C for the first, 248 to 250 °C for the second.

First: O=C(Nc1nc(C(Cl)(Cl)Cl)ns1)c1cc([N+](=O)[O-])cc([N+](=O)[O-])c1
Second: O=C(NCCOc1ncc(C(F)(F)F)cc1Cl)c1cc([N+](=O)[O-])ccc1Cl
The melting point of the first is higher: 197 °C for the first, 126 to 127 °C for the second.

Compared with CCN(CC)c1ccc(Cn2nc(-c3ccccc3O)nc2-c2ccccc2O)cc1, COCc1nc(C(C)(C)O)c(C(=O)OCOC(=O)C(C)(C)C)n1Cc1ccc(-c2ccccc2-c2nnn[nH]2)cc1 is lower in melting point: 125 to 127 °C for the first, 71 to 72 °C for the second.

First: Cc1cc(-c2ccc(C(F)(F)F)cc2)cn2c(-c3nc(-c4cnc(N)nc4)no3)cnc12
Second: O=C(Nc1ccccc1)c1cc(Oc2ccc(C(F)(F)F)cc2Cl)ccc1[N+](=O)[O-]
The melting point of the first is higher: 302 °C for the first, 190 to 194 °C for the second.

Compared with CCOC(=O)Nc1ccc(N2CCC(=O)CC2)cc1, CC(=O)OCC(=O)Nc1cccc(N2CCOCC2)c1C#N is lower in melting point: 145 to 146 °C for the first, 131 to 132 °C for the second.

Compared with Cc1c(Cl)nnc(Cl)c1C, COc1cc([N+](=O)[O-])cnc1Cl is lower in melting point: 80 to 82 °C for the first, 40 to 41 °C for the second.

First: CCOC(=O)C(C)(C(=O)OCC)c1ccc(N)c(C(C(=O)OC)C(=O)OC)c1
Second: CCOC(=O)c1cc(CC(C)(C)NC(=O)OC(C)(C)C)n(CCOC)n1
The melting point of the first is lower: 91 to 92 °C for the first, 92 to 93 °C for the second.

Compared with CC(=O)SCC(CC(C)C)C(=O)Nc1cccc(C(=O)O)c1 (stereo not drawn), CCC(=O)N1CCC(NC(=O)Nc2cccc(Cl)c2)CC1 is lower in melting point: 184 to 186 °C for the first, 165 to 166 °C for the second.

Compared with COc1ccccc1C=C1NC(=O)NC1=O, COc1ccc([C@H]2c3[nH]c4ccccc4c3C[C@H]3C(=O)NC(=O)N23)cc1 (relative stereo) is higher in melting point: 174 to 179 °C for the first, 295 to 305 °C for the second.

Compared with CCOC(=O)c1cnn(-c2ccc(OCCC(C)C)c(C#N)c2)c1, CC1=C(c2ccc(C#N)c3ccccc23)CCC1O (stereo not drawn) is lower in melting point: 125 to 126 °C for the first, 113 to 114 °C for the second.

Compared with N#CC1(C2(O)CCCCC2)Cc2cc3c(cc21)NCC3 (stereo not drawn), N#Cc1cccc(C2=Nc3cc(N4CCC5(CC4)OCCO5)c(-c4ccccc4F)cc3NC(=O)C2)c1 is higher in melting point: 168 to 170 °C for the first, 253 °C for the second.

Compared with CC1=CC(=O)N(c2cc(NS(=O)(=O)c3cccc4c(N(C)C)cccc34)cc(N3C(=O)C=C(C)C3=O)c2)C1=O, CC(Br)c1ccc2c(=O)c3ccccc3ccc2c1 (stereo not drawn) is lower in melting point: 230 °C for the first, 93 to 95 °C for the second.

First: OC(CCCN1CCN(c2ncc(F)cn2)CC1)c1ccc(F)c2ccccc12 (stereo not drawn)
Second: CCC(O)(c1ccc(OCCCN2CCCCC2)cc1)c1cccc(Cl)c1 (stereo not drawn)
The melting point of the first is higher: 129 to 131 °C for the first, 80 to 81 °C for the second.

First: O=c1[nH]cnc2c(Br)c(Cl)sc12
Second: CC1(C)CC(=O)C(C(=O)c2cccc3nnsc23)C(=O)C1
The melting point of the first is higher: greater than 280 °C for the first, 168 to 170 °C for the second.

First: CC(C)(C)OC(=O)N1CCC(S(C)(=O)=O)CC1
Second: CCC1CC2=C3C(=CN(OC)C2OC)OCCC3C1 (stereo not drawn)
The melting point of the first is lower: 94 to 95 °C for the first, 207 to 210 °C for the second.

First: CCCCCNc1cccc2c1CN(C1CCC(=O)NC1=O)C2=O (stereo not drawn)
Second: CCc1cn(C2CC(O)C(CNC(=O)Cc3ccccc3N)O2)c(=O)[nH]c1=O (stereo not drawn)
The melting point of the first is higher: 244 to 246 °C for the first, 195 to 196 °C for the second.

First: CN(C)c1ccc2nc(N)c(C#N)c(NCc3ccccc3)c2c1
Second: Clc1ccc(-c2nc(Cc3nnn[nH]3)c(-c3ccccc3)s2)cc1
The melting point of the first is higher: 265 °C for the first, 213 to 214 °C for the second.

First: CC(CN(C)C)On1c(=O)nc(-c2ccc3c(c2)OCO3)c2cc3c(cc21)OCO3 (stereo not drawn)
Second: COc1cc(C2C3=C(COC3=O)N(C)c3cc4c(cc32)OCO4)cc(OC)c1O (stereo not drawn)
The melting point of the first is lower: 160 to 165 °C for the first, 250 °C for the second.

Compared with O=C([C@@H]1CCCN1C(=O)CC1CCc2ccccc2C1)N1CCCC1 (stereo partly drawn), CN1CCN(C(=O)CC2CN=C(c3cc4cccc(N(C)S(=O)(=O)c5cccs5)c4[nH]3)S2)CC1 (stereo not drawn) is higher in melting point: 104 to 106 °C for the first, 151 to 153 °C for the second.

First: Oc1ccc2c(c1)CN(C1CC1)C2
Second: CN1[C@H]2CC[C@@H]1[C@H](C(=O)Oc1ccc(Cl)cc1)[C@@H](c1ccc(F)cc1)C2
The melting point of the first is higher: 170 °C for the first, 64 to 66 °C for the second.

Compared with C[C@@H]1Cc2cc(Cl)ccc2O[C@H]1c1ccc(Cl)cc1 (relative stereo), O=c1c2c(nc3ccc(Br)cn13)C(=Cc1ccc(Cl)cc1)CC2 is higher in melting point: 135 to 137 °C for the first, 233 to 234 °C for the second.

First: CCOC(=O)C(=NOCCBr)c1csc(NC=O)n1
Second: CCC(=O)NCCCSc1ccc(Cl)cc1
The melting point of the first is higher: 95 to 98 °C for the first, 69 to 70 °C for the second.

First: C=C=C[C@]12CCC(=O)C=C1C(=O)C[C@@H]1[C@@H]2CC[C@]2(C)C(=O)CC[C@@H]12
Second: CCC(=O)OC1CCC2C3CCC4=CC(=O)CCC4(CO)C3CCC12C (stereo not drawn)
The melting point of the first is higher: 187 to 190 °C for the first, 160 to 162 °C for the second.

Compared with Nc1cccc(-c2ccc(C3CCN(Cc4ccc5c(c4)OCO5)CC3)cc2)n1, O=C(Cl)C(OCc1ccc(-c2ccc(Cl)cc2)cc1)(C(F)(F)F)C(F)(F)F is lower in melting point: 150 to 165 °C for the first, 30 to 35 °C for the second.

First: CNC(=S)C1=CC(CF)(CF)Oc2cc(Cl)c(Cl)cc21
Second: CC(C)NCC(O)c1ccc(N)c(C(F)(F)F)c1 (stereo not drawn)
The melting point of the first is higher: 142 to 143 °C for the first, 136 to 138 °C for the second.

First: COc1ccc2c(c1)S(=O)(=O)c1cc(OC(C)=O)c(OC)cc1N2
Second: CC(NC(=O)Nc1ccc(Br)cn1)c1ncccc1F (stereo not drawn)
The melting point of the first is higher: 265 to 268 °C for the first, 151 to 154 °C for the second.

First: O=c1c([N+](=O)[O-])c(Cl)nc2sc(CCC3CCCCC3)nn12
Second: CCCc1nc2c(N)nc3cccnc3c2n1CC1(O)CCC1
The melting point of the first is lower: 136 to 137 °C for the first, 226 to 227 °C for the second.

Compared with CN(C(CCn1c(=O)cc(C(F)(F)F)[nH]c1=O)C(=O)NO)S(=O)(=O)c1ccc(Oc2ccc(F)cc2)cc1 (stereo not drawn), O=c1nc2c(c3ncnn13)=NC(c1ccccc1)=N2 is higher in melting point: 163 to 164 °C for the first, greater than 300 °C for the second.

Compared with CSCCSc1nc(C(C)(C)C)n[nH]1, O=Cc1csc2cc([N+](=O)[O-])ccc12 is higher in melting point: 114 to 116 °C for the first, 187 to 192 °C for the second.
